Article PMC10350917 (Journal of Medicinal Chemistry, 2023)
Several values for one entry are separate records, joined by “and”; a condition that tells them apart may be missing. Equal values may be shown once.

Experiments:
[1] = system: ADC-7 in pBCSK(−) E. coli DH10B; test: Broth microdilution AST, ADC-7; format: cell-based; settings: Escherichia coli, E. coli DH10B ADC-7, MB076 fixed at 10 mg/L in combinations, FDC in iron-depleted broth
Method: (§1) Susceptibility testing to standard antibiotics was performed by broth microdilution or agar dilution using an Oxoid replicator according to 2021 Clinical and Laboratory Standards Institute (CLSI) guidelines. MICs for CAZ, CTX, FEP, and TOL were determined using cation-adjusted Mueller Hinton MH broth, and MICs for FDC were done in iron-depleted cation-adjusted MH broth according to CLSI methods. MB076, S02030, and VAB were used at a fixed concentration of 10 mg/L. All MICs were interpreted according to the 2021 CLSI guidelines.[43]
(§2) blaADC-7 pBCSK- was cloned and expressed in E. coli DH10B cells as previously described.[44] All other blaADC variants were synthesized by GenScript according to the blaADC-7 pBCSK- strategy, cloning into the XbaI/BamHI sites of the pBCSK- vector.

[2] = system: ADC-219 in pBCSK(−) E. coli DH10B; test: Broth microdilution AST, ADC-219; format: cell-based; settings: Escherichia coli, E. coli DH10B ADC-219, MB076 fixed at 10 mg/L in combinations, FDC in iron-depleted broth
Method: as §1, §2

ADC-33 [3] = biological target: T1, ADC-33 (Acinetobacter baumannii, UniProt A7Y407); settings: ADC-33; substrate
Method: Steady-state kinetic parameters were determined by combining pure enzyme with antibiotic substrates in 50 mM NaH2PO4, pH 7.4 at room temperature. Changes in absorbance were measured on a Cary 60 UV–Vis spectrophotometer (Agilent Technologies) and converted to velocity using the change in extinction coefficient specific to nitrocefin (ε482 = 17,400 M^–1·cm^–1), cephalothin (ε262 = 7660 M^–1·cm^–1), ceftazidime (ε260 = 8660 M^–1·cm^–1), cefotaxime (ε260 = 7500 M^–1·cm^–1), cefepime (ε260 = 750 M^–1·cm^–1), cefiderocol (ε259 = 9430 M^–1·cm^–1), and ceftolozane (ε254 = 6810 M^–1·cm^–1). Initial velocities were fit to the Michaelis–Menten equation yielding kcat and KM values. For ADC/substrate combinations in which the KM was too large to accurately determine both kcat and KM values, the initial velocities at kcat/KM values were calculated from linear fits of vo in low [S] ranges (<0.08 × KM).

[4] = system: ADC-30 in pBCSK(−) E. coli DH10B; test: Broth microdilution AST, ADC-30; format: cell-based; settings: Escherichia coli, E. coli DH10B ADC-30, MB076 fixed at 10 mg/L in combinations, FDC in iron-depleted broth
Method: as §1, §2

[5] = system: ADC-33 in pBCSK(−) E. coli DH10B; test: Broth microdilution AST, ADC-33; format: cell-based; settings: Escherichia coli, E. coli DH10B ADC-33, MB076 fixed at 10 mg/L in combinations, FDC in iron-depleted broth
Method: as §1, §2

[6] = system: ADC-212 in pBCSK(−) E. coli DH10B; test: Broth microdilution AST, ADC-212; format: cell-based; settings: Escherichia coli, E. coli DH10B ADC-212, MB076 fixed at 10 mg/L in combinations, FDC in iron-depleted broth
Method: as §1, §2

in vitro = settings: human, plasma, pH 7.4
Method: (§3) The in vitro stability of MB076 and S02030 was evaluated by incubating the compounds in both buffer (pH 7.4) and human plasma at 37 °C over 48 h. Half-lives (t1/2) were then calculated for each compound.
(§4) Plasma and buffer stability samples were analyzed by monitoring the disappearance of the compounds using high-performance liquid chromatography-mass spectrometry (LC–MS) techniques.
Half-lives (t1/2) were calculated in Origin using a one-phase decay model with t1/2 = ln(2)/b, where b is the slope of a linear plot of natural logarithm (ln) of the remaining compound concentration (C) versus incubation time. Each condition was tested in triplicate.

ADC-30 = ADC-30 (Acinetobacter baumannii, UniProt A7XM81); test: Inhibition kinetics (competition with nitrocefin), ADC-30; format: biochemical; settings: 100 μM nitrocefin, 3 min pre-incubation
Method: (§5) For inhibition kinetics, utilizing nitrocefin (NCF) as a colorimetric substrate, the inhibition constant (Ki) of MB076 and S02030 BATSI with ADCs was determined using competition kinetics as previously described.[10],[25],[28],[34] The measurements of the initial velocities were performed with the addition of 100 μM NCF after a 3 min pre-incubation of the enzyme (2 nM) with increasing concentration of the inhibitor. […] The Ki value was corrected for the NCF affinity (KM values for each ADC variant listed in Table 1) with the Cheng–Prusoff[35] equation: [drawing 2]

ADC-7 = ADC-7 (Acinetobacter baumannii, UniProt Q6DRA1); settings: ref [10]; cited from earlier work
KPC-2 = settings: ref [14],[25]; cited from earlier work
ADC variants = test: Inhibition kinetics, statement for all ADC variants; format: biochemical, Acinetobacter baumannii; settings: bound stated for all ADC variants of the study
Method: as §5

ADC-33 [7] = biological target: T1, ADC-33; test: Inhibition kinetics (competition with nitrocefin), ADC-33; format: biochemical; settings: 100 μM nitrocefin, 3 min pre-incubation
Method: as §5

SHV-1 = settings: ref [14],[25]; cited from earlier work
physchem = settings: buffer, pH 7.4
Method: as §3, §4
Standard solutions were prepared by adding the compound in DMSO (2.5 μM) to 0.1 M phosphate buffer pH 7.4 and MeOH. Solutions were vortexed, filtered, and analyzed by LC–MS (At=0). Samples were then prepared by adding a solution of the compound in DMSO (2.5 μM) to phosphate buffer pH 7.4 and incubating at 37 °C. At suitable time intervals, the reaction was stopped by the addition of MeOH. The solutions were vortexed and filtered. Degradation time courses were followed by LC–MS enabling the quantitation of compounds. Half-lives (t1/2) were calculated in Origin using a one-phase decay model with t1/2 = ln(2)/b, where b is the slope of a linear plot of natural logarithm (ln) of the remaining compound concentration (C) versus incubation time. Each condition was tested in triplicate.

ADC-162 = ADC-162 (Acinetobacter baumannii, UniProt A0A2H4PPJ8); test: Inhibition kinetics (competition with nitrocefin), ADC-162; format: biochemical
Method: as §5

[8] = system: Cn1c(N)c(NC(=O)NCCN)c[n+]1CC1=C(C(=O)O)N2C(=O)[C@@H](NC(=O)/C(=N\OC(C)(C)C(=O)[O-])c3nsc(N)n3)[C@H]2SC1; test: purified protein, by the assay type; settings: other: ADC-30, substrate, 50 mM NaH2PO4 pH 7.4, room temperature
[9] = system: CC(C)(O/N=C(\C(=O)N[C@@H]1C(=O)N2C(C(=O)[O-])=C(C[n+]3ccccc3)CS[C@H]12)c1csc(N)n1)C(=O)O; test: purified protein, by the assay type; settings: other: ADC-30, substrate, 50 mM NaH2PO4 pH 7.4, room temperature
[10] = system: CC(=O)OCC1=C(C(=O)O)N2C(=O)[C@@H](NC(=O)Cc3cccs3)[C@H]2SC1; test: purified protein, by the assay type; settings: other: ADC-30, substrate, 50 mM NaH2PO4 pH 7.4, room temperature
[11] = system: CC(C)(O/N=C(\C(=O)N[C@@H]1C(=O)N2C(C(=O)[O-])=C(C[N+]3(CCNC(=O)c4ccc(O)c(O)c4Cl)CCCC3)CS[C@H]12)c1csc(N)n1)C(=O)O; test: purified protein, by the assay type; settings: other: ADC-30, substrate, 50 mM NaH2PO4 pH 7.4, room temperature
[12] = system: CO/N=C(\C(=O)N[C@@H]1C(=O)N2C(C(=O)[O-])=C(C[N+]3(C)CCCC3)CS[C@H]12)c1csc(N)n1; test: purified protein, by the assay type; settings: other: ADC-30, substrate, 50 mM NaH2PO4 pH 7.4, room temperature
[13] = system: O=C(Cc1cccs1)N[C@@H]1C(=O)N2C(C(=O)O)=C(/C=C/c3ccc([N+](=O)[O-])cc3[N+](=O)[O-])CS[C@H]12; test: purified protein, by the assay type; settings: other: ADC-30, substrate, 50 mM NaH2PO4 pH 7.4, room temperature

Cn1c(N)c(NC(=O)NCCN)c[n+]1CC1=C(C(=O)O)N2C(=O)[C@@H](NC(=O)/C(=N\OC(C)(C)C(=O)[O-])c3nsc(N)n3)[C@H]2SC1 [ceftolozane]
MIC [1]: 8 µg/mL | MIC [2]: 128 µg/mL | kcat (ADC-33 [3]): 4.23 s^–1 | MIC [4]: 8 µg/mL | MIC [5]: 256 µg/mL | MIC [6]: 256 µg/mL

CC(C)(O/N=C(\C(=O)N[C@@H]1C(=O)N2C(C(=O)[O-])=C(C[N+]3(CCNC(=O)c4ccc(O)c(O)c4Cl)CCCC3)CS[C@H]12)c1csc(N)n1)C(=O)O [cefiderocol]
MIC [1]: 0.5 µg/mL | MIC [2]: 1 µg/mL | kcat (ADC-33 [3]): 0.60 s^–1 | MIC [4]: 0.5 µg/mL | MIC [5]: 2 µg/mL | MIC [6]: 1 µg/mL

CO/N=C(\C(=O)N[C@@H]1C(=O)N2C(C(=O)[O-])=C(C[N+]3(C)CCCC3)CS[C@H]12)c1csc(N)n1 [cefepime]
MIC [1]: 0.25 µg/mL | MIC [2]: 0.12 µg/mL | MIC [4]: 0.25 µg/mL | MIC [5]: 0.5 µg/mL | MIC [6]: 0.5 µg/mL

O=C(Cc1cccs1)N[C@@H](Cn1cc(C(=O)O)nn1)B(O)O [S02030]
half-life at 2.5 μM (in vitro): 9 h | Ki (ADC-30): 28 ± 2 nM | Ki (ADC-7): 44.5 nM and 44 nM and 45 nM | IC50 (KPC-2): 80 nM | Ki (ADC variants): < 1000 nM | Ki (ADC-33 [7]): 110 ± 4 nM | IC50 (SHV-1): 130 nM | half-life (physchem): 8 h | Ki (ADC-162): 160 ± 10 nM

ADC-30 (Acinetobacter baumannii)
kcat/Km [8]: < 1000 M⁻¹ s⁻¹ | kcat/Km [9]: 3300 M⁻¹ s⁻¹ | Km [10]: 174.8 ± 8.8 µM | kcat [10]: 763 ± 16.5 s⁻¹ | kcat/Km [10]: 4.36e+06 ± 310000 M⁻¹ s⁻¹ | kcat/Km [11]: < 1000 M⁻¹ s⁻¹ | kcat/Km [12]: 4900 M⁻¹ s⁻¹ | Km [13]: 46.3 ± 3.7 µM | kcat [13]: 538 ± 12.9 s⁻¹ | kcat/Km [13]: 1.16e+07 ± 1.21e+06 M⁻¹ s⁻¹
